From US20230035586A1, “Salts of R-ketorolac” (Revere Pharmaceuticals, Inc., priority 2019, published 2023)

Legend:
[1] = Dynamic Vapor Sorption (DVS) moisture sorption/desorption; type: physicochemical; settings: for weight gain from 5-75% RH / weight gain from 5-75% RH, moles of H2O / weight gain above 75% RH / weight gain above 75% RH, moles of H2O: DVS sorption; for weight gain above 75% RH / weight gain above 75% RH, moles of H2O: above 75% RH (up to 95% RH); for form change after DVS, based on XRPD: XRPD of post-DVS solids
Description: DVS analysis (FIG. 5) was conducted by first equilibrating at ambient RH, and then dropping to 5% RH. It was then increased to 95% RH and cycled back to 5% RH. The sample was held at 5% RH until XRPD analysis. Upon equilibration from ambient RH (-48%) to 5% RH, the sample loses 0.4 wt %, equivalent to ˜0.1 moles of H2O. From 5-75% RH, the material undergoes a 1.2 wt % gain (˜0.25 moles of H2O). Above 75% RH, the material gains ˜12 wt % (˜3 moles of H2O).
The crystalline salt of R-ketorolac and meglumine was analyzed by DVS (FIG. 10). […] Upon equilibration from ambient RH (˜50%) to 5% RH, the sample loses 0.1 wt %, equivalent to <0.1 mole of H2O. From 5-75% RH, the material undergoes a 0.9 wt % gain (˜0.25 moles of H2O). Above 75% RH, the material gains ˜37 wt % (>12 moles of H2O). Upon desorption to 5% RH, which occurs with hysteresis, the sample retains ˜9.6 wt % (˜2.7 moles of H2O).
Moisture sorption/desorption data were collected on a VTI SGA-100 Vapor Sorption Analyzer. NaCl and PVP were used as calibration standards. Samples were not dried prior to analysis. Sorption and desorption data were collected over a range from 5% to 95% RH at 10% RH increments under a nitrogen purge. The equilibrium criterion used for analysis was less than 0.0100% weight change in 5 minutes with a maximum equilibration time of 3 hours. Data were not corrected for the initial moisture content of the samples.

[2] = in vivo; cited from earlier work

CNCC(O)C(O)C(O)C(O)CO.O=C(c1ccccc1)c1ccc2n1CCC2C(=O)O (stereo not drawn) [R-ketorolac meglumine crystalline salt, R-ketorolac meglumine salt]
weight retained upon desorption to 5% RH ([1]; DVS desorption to 5% RH): ~9.6 wt % | weight retained upon desorption to 5% RH, moles of H2O ([1]; DVS desorption to 5% RH): ~2.7 moles of H2O | weight gain from 5-75% RH [1]: 0.9 wt % | weight gain from 5-75% RH, moles of H2O [1]: ~0.25 moles of H2O | weight gain above 75% RH [1]: ~37 wt % | weight gain above 75% RH, moles of H2O [1]: > 12 moles of H2O | hygroscopicity above 75% RH ([1]; DVS, above 75% RH): highly hygroscopic | weight loss upon equilibration from ambient RH to 5% RH ([1]; DVS): 0.1 wt % | weight loss upon equilibration from ambient RH to 5% RH, equivalent moles of H2O ([1]; DVS): < 0.1 moles of H2O | hygroscopicity below 75% RH ([1]; DVS, below 75% RH): limited hygroscopicity | form change after DVS, based on XRPD [1]: form change is not observed

O=C(c1ccccc1)c1ccc2n1CC[C@@H]2C(=O)O [S-ketorolac]
tolerability in rat studies [2]: severe dose limiting toxicities

NC(CO)(CO)CO.O=C(c1ccccc1)c1ccc2n1CC[C@H]2C(=O)O [R-ketorolac tromethamine salt]
moisture after desorption to 5% RH (in words) ([1]; DVS desorption to 5% RH, small hysteresis): all the gained moisture is lost | weight gain from 5-75% RH [1]: 1.2 wt % | weight gain from 5-75% RH, moles of H2O [1]: ~0.25 moles of H2O | weight gain above 75% RH [1]: ~12 wt % | weight gain above 75% RH, moles of H2O [1]: ~3 moles of H2O | weight loss upon equilibration from ambient RH to 5% RH ([1]; DVS): 0.4 wt % | weight loss upon equilibration from ambient RH to 5% RH, equivalent moles of H2O ([1]; DVS): ~0.1 moles of H2O | form change after DVS, based on XRPD [1]: form change is not observed

O=C(c1ccccc1)c1ccc2n1CC[C@H]2C(=O)O [R-ketorolac]
tolerability in rat studies [2]: much better tolerated than S-ketorolac
